# Measurements as given in publication PMC5218480 (PLoS ONE, 2017).
# System: MV-4-11 cells
# Experiment: Gene expression microarray analysis (Affymetrix PrimeView) and GSEA
# Format: cell-based, human
# Set-up: RFU PODN (11730768_x_at) / Fold change /veh PODN (11730768_x_at) / RFU LINC00158 (11744669_a_at) / Fold change /veh LINC00158 (11744669_a_at) / RFU DUSP10 (11751237_a_at) / Fold change /veh DUSP10 (11751237_a_at) / RFU ID3 (11757404_x_at) / Fold change /veh ID3 (11757404_x_at) / RFU PLEKHG5 (11737974_s_at) / Fold change /veh PLEKHG5 (11737974_s_at) / RFU LRRC4B (11730491_at) / Fold change /veh LRRC4B (11730491_at) / RFU GIMAP4 (11747438_a_at) / Fold change /veh GIMAP4 (11747438_a_at) / RFU KRT8 (11758183_x_at) / Fold change /veh KRT8 (11758183_x_at) / RFU CNN1 (11734310_a_at) / Fold change /veh CNN1 (11734310_a_at) / RFU VPS37D (11726825_at) / Fold change /veh VPS37D (11726825_at) / RFU C10orf10 (11716522_x_at) / Fold change /veh C10orf10 (11716522_x_at) / RFU KIR2DL2 /// KIR2DL4 /// KIR2DL5A /// KIR2DL5B /// KIR2DS1 /// KIR2DS2 /// KIR2DS3 /// KIR2DS4 /// KIR3DL3 /// KIR3DL3 /// KIR3DS1 (11738374_at) / Fold change /veh KIR2DL2 /// KIR2DL4 /// KIR2DL5A /// KIR2DL5B /// KIR2DS1 /// KIR2DS2 /// KIR2DS3 /// KIR2DS4 /// KIR3DL3 /// KIR3DL3 /// KIR3DS1 (11738374_at) / RFU C1QL1 (11718748_at) / Fold change /veh C1QL1 (11718748_at) / RFU TMPRSS4 (11747572_a_at) / Fold change /veh TMPRSS4 (11747572_a_at) / RFU HAMP (11756126_x_at) / Fold change /veh HAMP (11756126_x_at) / RFU RNFT2 (11725882_a_at) / Fold change /veh RNFT2 (11725882_a_at) / RFU NR4A2 (11747474_a_at) / Fold change /veh NR4A2 (11747474_a_at) / RFU ABCC12 (11746883_a_at) / Fold change /veh ABCC12 (11746883_a_at) / RFU TMEM136 (11760407_x_at) / Fold change /veh TMEM136 (11760407_x_at) / RFU CLDN22 /// WWC2 (11732394_at) / Fold change /veh CLDN22 /// WWC2 (11732394_at) / RFU HLA-DPB1 (11760878_x_at) / Fold change /veh HLA-DPB1 (11760878_x_at) / RFU SPINT1 (11716480_a_at) / Fold change /veh SPINT1 (11716480_a_at) / RFU GAP43 (11754022_s_at) / Fold change /veh GAP43 (11754022_s_at) / RFU A4GNT (11735810_at) / Fold change /veh A4GNT (11735810_at) / RFU PRB3 (11715151_x_at) / Fold change /veh PRB3 (11715151_x_at) / RFU TUBB4B (11761932_at) / Fold change /veh TUBB4B (11761932_at) / RFU CAPN14 (11732068_a_at) / Fold change /veh CAPN14 (11732068_a_at) / RFU TMCC2 (11721928_a_at) / Fold change /veh TMCC2 (11721928_a_at) / RFU IRGQ (11745062_a_at) / Fold change /veh IRGQ (11745062_a_at) / RFU FAM174B (11720279_a_at) / Fold change /veh FAM174B (11720279_a_at) / RFU TMPRSS4 (11748680_a_at) / Fold change /veh TMPRSS4 (11748680_a_at) / RFU FAM212B (11763350_a_at) / Fold change /veh FAM212B (11763350_a_at) / RFU PLEKHG5 (11743358_a_at) / Fold change /veh PLEKHG5 (11743358_a_at) / RFU ZSCAN30 (11745921_a_at) / Fold change /veh ZSCAN30 (11745921_a_at) / RFU CMKLR1 (11741424_a_at) / Fold change /veh CMKLR1 (11741424_a_at) / RFU LOC101060620 /// MAPK8IP1 (11723275_at) / Fold change /veh LOC101060620 /// MAPK8IP1 (11723275_at) / RFU SPTSSB (11747773_x_at) / Fold change /veh SPTSSB (11747773_x_at) / RFU PRSS12 (11739890_at) / Fold change /veh PRSS12 (11739890_at) / RFU BIN1 (11741810_x_at) / Fold change /veh BIN1 (11741810_x_at) / RFU WNT11 (11732464_a_at) / Fold change /veh WNT11 (11732464_a_at) / RFU C10orf10 (11716521_a_at) / Fold change /veh C10orf10 (11716521_a_at) / RFU C5orf56 (11738089_at) / Fold change /veh C5orf56 (11738089_at) / RFU CYB561 (11721691_x_at) / Fold change /veh CYB561 (11721691_x_at) / RFU ANKRD19P (11752326_a_at) / Fold change /veh ANKRD19P (11752326_a_at) / RFU OR2T12 /// OR2T33 /// OR2T8 (11738714_s_at) / Fold change /veh OR2T12 /// OR2T33 /// OR2T8 (11738714_s_at) / RFU VCAN (11748164_a_at) / Fold change /veh VCAN (11748164_a_at) / RFU JSRP1 (11732532_at) / Fold change /veh JSRP1 (11732532_at) / RFU KRTAP10-11 (11738290_x_at) / Fold change /veh KRTAP10-11 (11738290_x_at) / RFU MYO3A (11730013_a_at) / Fold change /veh MYO3A (11730013_a_at) / RFU EBF3 (11725865_a_at) / Fold change /veh EBF3 (11725865_a_at) / RFU CAMK2N1 (11719241_x_at) / Fold change /veh CAMK2N1 (11719241_x_at) / RFU C5orf56 (11738088_a_at) / Fold change /veh C5orf56 (11738088_a_at) / RFU OLFML3 (11715873_a_at) / Fold change /veh OLFML3 (11715873_a_at) / RFU LOC100653217 /// NTM (11731650_a_at) / Fold change /veh LOC100653217 /// NTM (11731650_a_at) / RFU MAPK11 (11762145_a_at) / Fold change /veh MAPK11 (11762145_a_at) / RFU FIZ1 (11724087_x_at) / Fold change /veh FIZ1 (11724087_x_at) / RFU OASL (11726364_x_at) / Fold change /veh OASL (11726364_x_at) / RFU SOX15 (11748057_x_at) / Fold change /veh SOX15 (11748057_x_at) / RFU CD79A (11719716_a_at) / Fold change /veh CD79A (11719716_a_at) / RFU HIST1H1D (11736915_at) / Fold change /veh HIST1H1D (11736915_at) / RFU CASKIN2 (11723855_a_at) / Fold change /veh CASKIN2 (11723855_a_at) / RFU LOC730098 (11760151_x_at) / Fold change /veh LOC730098 (11760151_x_at) / RFU OR4N2 (11742367_at) / Fold change /veh OR4N2 (11742367_at) / RFU PRRT2 (11749266_a_at) / Fold change /veh PRRT2 (11749266_a_at) / RFU SNX32 (11753110_a_at) / Fold change /veh SNX32 (11753110_a_at) / RFU CDHR5 (11726645_a_at) / Fold change /veh CDHR5 (11726645_a_at) / RFU RCAN1 (11760418_a_at) / Fold change /veh RCAN1 (11760418_a_at) / RFU FAM167A (11723789_a_at) / Fold change /veh FAM167A (11723789_a_at) / RFU FAM26E (11764081_at) / Fold change /veh FAM26E (11764081_at) / RFU ISYNA1 (11749810_s_at) / Fold change /veh ISYNA1 (11749810_s_at) / RFU ACY1 (11761880_at) / Fold change /veh ACY1 (11761880_at) / RFU 11764098_at / Fold change /veh 11764098_at / RFU SAMD14 (11745864_x_at) / Fold change /veh SAMD14 (11745864_x_at) / RFU NPB (11741838_a_at) / Fold change /veh NPB (11741838_a_at) / RFU TMPRSS6 (11731388_a_at) / Fold change /veh TMPRSS6 (11731388_a_at) / RFU KRTAP10-2 (11738614_at) / Fold change /veh KRTAP10-2 (11738614_at) / RFU ARHGAP8 /// PRR5-ARHGAP8 (11727945_x_at) / Fold change /veh ARHGAP8 /// PRR5-ARHGAP8 (11727945_x_at) / RFU KRTAP5-7 /// NADSYN1 (11734609_at) / Fold change /veh KRTAP5-7 /// NADSYN1 (11734609_at) / RFU RASL12 (11751679_a_at) / Fold change /veh RASL12 (11751679_a_at) / RFU CDKN2B (11736163_a_at) / Fold change /veh CDKN2B (11736163_a_at) / RFU PRF1 (11729649_at) / Fold change /veh PRF1 (11729649_at) / RFU, ZNF638 /// ZNF638-IT1 / Fold change vs veh, ZNF638 /// ZNF638-IT1 / RFU, PANK3 / Fold change vs veh, PANK3 / RFU, SH3YL1 / Fold change vs veh, SH3YL1 / RFU, ZEB2 / Fold change vs veh, ZEB2 / RFU, NRIP1 / Fold change vs veh, NRIP1 / RFU, PTTG1IP / Fold change vs veh, PTTG1IP / RFU, CAPN2 / Fold change vs veh, CAPN2 / RFU, MED14 / Fold change vs veh, MED14 / RFU, SNORA58 / Fold change vs veh, SNORA58 / RFU, C1orf63 / Fold change vs veh, C1orf63 / RFU, LRRFIP1 / Fold change vs veh, LRRFIP1 / RFU, NDUFAF7 / Fold change vs veh, NDUFAF7 / RFU, SLC12A2 / Fold change vs veh, SLC12A2 / RFU, IBTK / Fold change vs veh, IBTK / RFU, ESF1 / Fold change vs veh, ESF1 / Fold change vs veh, TMEM50B / RFU, TAOK1 / Fold change vs veh, TAOK1 / RFU, ACBD3 / Fold change vs veh, ACBD3 / RFU, TMA16 / Fold change vs veh, TMA16 / RFU, RWDD3 / Fold change vs veh, RWDD3 / RFU, BCAT1 / Fold change vs veh, BCAT1 / RFU, EDEM3 / Fold change vs veh, EDEM3 / RFU, TMEM33 / Fold change vs veh, TMEM33 / RFU, WDR75 / Fold change vs veh, WDR75 / RFU, AHCTF1 / Fold change vs veh, AHCTF1 / RFU, TFRC / Fold change vs veh, TFRC / RFU, ZDHHC17 / Fold change vs veh, ZDHHC17 / RFU, NOM1 / Fold change vs veh, NOM1 / RFU, ARL8B / Fold change vs veh, ARL8B / RFU, ZBTB11 / Fold change vs veh, ZBTB11 / RFU, TAMM41 / Fold change vs veh, TAMM41 / RFU, KIAA1704 /// LOC100996395 / Fold change vs veh, KIAA1704 /// LOC100996395 / RFU, ING1 / Fold change vs veh, ING1 / RFU, TRMT61B / Fold change vs veh, TRMT61B / RFU, FUBP3 / Fold change vs veh, FUBP3 / RFU, TP53 / Fold change vs veh, TP53 / RFU, TNKS2 / Fold change vs veh, TNKS2 / RFU, ZFP14 / Fold change vs veh, ZFP14 / RFU, ACTR2 / Fold change vs veh, ACTR2 / RFU, PPP3R1 / Fold change vs veh, PPP3R1 / RFU, PIK3R1 / Fold change vs veh, PIK3R1 / RFU, HNRNPA1 / Fold change vs veh, HNRNPA1 / RFU, RNF170 / Fold change vs veh, RNF170 / RFU, ZNF28 / Fold change vs veh, ZNF28 / RFU, RNGTT / Fold change vs veh, RNGTT / RFU, OGT / Fold change vs veh, OGT / RFU, BRD1 / Fold change vs veh, BRD1 / RFU, MARS / Fold change vs veh, MARS / RFU, ZNF655 / Fold change vs veh, ZNF655 / RFU, FAHD1 / Fold change vs veh, FAHD1 / RFU, BDP1 / Fold change vs veh, BDP1 / RFU, LRRCC1 / Fold change vs veh, LRRCC1 / RFU, ARID1A / Fold change vs veh, ARID1A / RFU, ZNF146 / Fold change vs veh, ZNF146 / RFU, ZNF330 / Fold change vs veh, ZNF330 / RFU, GPN3 / Fold change vs veh, GPN3 / RFU, C9orf123 / Fold change vs veh, C9orf123 / RFU, N4BP2L2 / Fold change vs veh, N4BP2L2 / RFU, ARFIP1 / Fold change vs veh, ARFIP1 / RFU, FAM179B / Fold change vs veh, FAM179B / RFU, BCL10 / Fold change vs veh, BCL10 / RFU, UHRF1BP1L / Fold change vs veh, UHRF1BP1L / RFU, BET1 / Fold change vs veh, BET1 / RFU, CNOT2 / Fold change vs veh, CNOT2 / RFU, ZNF268 / Fold change vs veh, ZNF268 / Fold change vs veh, ZNF507 / RFU, DGCR2 / Fold change vs veh, DGCR2 / RFU, WDSUB1 / Fold change vs veh, WDSUB1 / Fold change vs veh, HSP90B1 /// MIR3652 / RFU, ADSS / Fold change vs veh, ADSS / RFU, GK / Fold change vs veh, GK / RFU, ZNF148 / Fold change vs veh, ZNF148 / RFU, TAF9 / Fold change vs veh, TAF9 / RFU, SLC1A5 / Fold change vs veh, SLC1A5 / RFU, SLMO2 / Fold change vs veh, SLMO2 / RFU, ABCC4 / Fold change vs veh, ABCC4 / RFU, LOC101060439 /// RAP1B / Fold change vs veh, LOC101060439 /// RAP1B / RFU, RFX7 / Fold change vs veh, RFX7 / RFU, GTPBP10 / Fold change vs veh, GTPBP10 / RFU, CNEP1R1 / Fold change vs veh, CNEP1R1 / RFU, BIVM-ERCC5 /// ERCC5 / Fold change vs veh, BIVM-ERCC5 /// ERCC5 / RFU, ILF3 / Fold change vs veh, ILF3 / RFU 11762660_at / Fold change /veh 11762660_at / RFU VCAN (11757783_s_at) / Fold change /veh VCAN (11757783_s_at) / RFU DDX43 (11728927_at) / Fold change /veh DDX43 (11728927_at) / RFU KRT8 (11758188_x_at) / Fold change /veh KRT8 (11758188_x_at) / RFU NKD1 (11759106_at) / Fold change /veh NKD1 (11759106_at) / RFU SRD5A1 (11742802_a_at) / Fold change /veh SRD5A1 (11742802_a_at) / RFU TPSAB1 /// TPSB2 (11721975_s_at) / Fold change /veh TPSAB1 /// TPSB2 (11721975_s_at) / RFU GSTM3 (11746129_a_at) / Fold change /veh GSTM3 (11746129_a_at) / RFU IL23R (11737362_x_at) / Fold change /veh IL23R (11737362_x_at) / RFU TMEM51 (11727254_a_at) / Fold change /veh TMEM51 (11727254_a_at) / RFU PIWIL2 (11732686_x_at) / Fold change /veh PIWIL2 (11732686_x_at) / RFU ORM1 (11744905_x_at) / Fold change /veh ORM1 (11744905_x_at) / RFU CCDC152 (11743942_at) / Fold change /veh CCDC152 (11743942_at) / RFU ECM1 (11717891_a_at) / Fold change /veh ECM1 (11717891_a_at) / RFU IL23R (11748794_a_at) / Fold change /veh IL23R (11748794_a_at) / RFU TNFAIP8L3 (11732012_x_at) / Fold change /veh TNFAIP8L3 (11732012_x_at) / RFU MBOAT4 (11741988_at) / Fold change /veh MBOAT4 (11741988_at) / RFU 11764193_at / Fold change /veh 11764193_at / RFU TMEM53 (11763286_at) / Fold change /veh TMEM53 (11763286_at) / RFU MAGEB2 (11727129_at) / Fold change /veh MAGEB2 (11727129_at) / RFU TMEM200A (11744735_a_at) / Fold change /veh TMEM200A (11744735_a_at) / RFU CCDC152 (11751479_a_at) / Fold change /veh CCDC152 (11751479_a_at) / RFU FAM211A (11726209_a_at) / Fold change /veh FAM211A (11726209_a_at) / RFU RGS16 (11746705_a_at) / Fold change /veh RGS16 (11746705_a_at) / RFU VCAN (11755009_s_at) / Fold change /veh VCAN (11755009_s_at) / RFU RHOB (11743442_s_at) / Fold change /veh RHOB (11743442_s_at) / RFU RGS16 (11720943_a_at) / Fold change /veh RGS16 (11720943_a_at) / RFU RGS16 (11720944_at) / Fold change /veh RGS16 (11720944_at) / RFU, VPS4B / Fold change vs veh, VPS4B / RFU, CREB1 / Fold change vs veh, CREB1 / RFU, DNAJC13 / Fold change vs veh, DNAJC13 / RFU, GNAQ / Fold change vs veh, GNAQ / RFU, CDK5R1 / Fold change vs veh, CDK5R1 / RFU, ZRANB3 / Fold change vs veh, ZRANB3 / RFU, CUL4A / Fold change vs veh, CUL4A / RFU, CCNY / Fold change vs veh, CCNY / RFU, UFL1 / Fold change vs veh, UFL1 / RFU, COG3 / Fold change vs veh, COG3 / RFU, DIAPH2 / Fold change vs veh, DIAPH2 / RFU, SKA2 / Fold change vs veh, SKA2 / RFU, AFF3 / Fold change vs veh, AFF3 / RFU, LMF1 / Fold change vs veh, LMF1 / RFU, IPO11 / Fold change vs veh, IPO11 / RFU, DFFB / Fold change vs veh, DFFB / RFU, FOXP1 / Fold change vs veh, FOXP1 / RFU, CARD8 / Fold change vs veh, CARD8 / RFU, STRN3 / Fold change vs veh, STRN3 / RFU, ADK / Fold change vs veh, ADK / RFU, RASSF2 / Fold change vs veh, RASSF2 / RFU, WIPF1 / Fold change vs veh, WIPF1 / RFU, LARP1B / Fold change vs veh, LARP1B / RFU, RASA1 / Fold change vs veh, RASA1 / RFU, RB1 / Fold change vs veh, RB1 / RFU, PPFIA1 / Fold change vs veh, PPFIA1 / RFU, MAT2A / Fold change vs veh, MAT2A / RFU, CCT5 / Fold change vs veh, CCT5 / RFU, WDR92 / Fold change vs veh, WDR92 / RFU, CUX1 / Fold change vs veh, CUX1 / RFU, TTC7A / Fold change vs veh, TTC7A / RFU, TMEM135 / Fold change vs veh, TMEM135 / RFU, DEPTOR / Fold change vs veh, DEPTOR / RFU, CPM / Fold change vs veh, CPM / RFU, DNAJB6 / Fold change vs veh, DNAJB6 / RFU, CACNA2D3 / Fold change vs veh, CACNA2D3 / RFU, DTX4 / Fold change vs veh, DTX4 / RFU, TFCP2 / Fold change vs veh, TFCP2 / RFU, GMCL1 /// GMCL1P1 / Fold change vs veh, GMCL1 /// GMCL1P1 / RFU, AEBP2 / Fold change vs veh, AEBP2 / RFU, SNHG1 /// SNORD22 /// SNORD25 /// SNORD26 /// SNORD27 /// SNORD28 /// SNORD29 /// SNORD31 / Fold change vs veh, SNHG1 /// SNORD22 /// SNORD25 /// SNORD26 /// SNORD27 /// SNORD28 /// SNORD29 /// SNORD31 / Fold change (Aza/veh), C12orf56 (ProbeSet 11735607_a_at) / Fold change (ACY-1035/veh), C12orf56 (ProbeSet 11735607_a_at) / Fold change (Aza/veh), FGFR1OP (ProbeSet 11751329_s_at) / Fold change (ACY-1035/veh), FGFR1OP (ProbeSet 11751329_s_at) / Fold change (Aza/veh), VPS36 (ProbeSet 11739960_a_at) / Fold change (ACY-1035/veh), VPS36 (ProbeSet 11739960_a_at) / RFU SYPL1 (11715823_x_at) / Fold change /veh SYPL1 (11715823_x_at) / RFU IGFBP7 (11715501_s_at) / Fold change /veh IGFBP7 (11715501_s_at) / RFU REEP3 (11722064_at) / Fold change /veh REEP3 (11722064_at) / RFU IGLL1 (11728026_x_at) / Fold change /veh IGLL1 (11728026_x_at): dose or concentration left out as unconfirmed
# Conditions: MV-4-11 cells, 48 hours
compound,measurement,value
Nc1ncn([C@@H]2O[C@H](CO)[C@@H](O)[C@H]2O)c(=O)n1 [azacitidine],RFU NR4A2 (11747474_a_at),22.61 RFU
